Common to all, as to experiment: relative viability (nuclei count vs DMSO), 5 days (fraction); higher = more cells survive
Compound in the assay “Dabrafenib + Alpelisib”: CC(C)(C)c1nc(-c2cccc(NS(=O)(=O)c3c(F)cccc3F)c2F)c(-c2ccnc(N)n2)s1 [Dabrafenib] + Cc1nc(NC(=O)N2CCC[C@H]2C(N)=O)sc1-c1ccnc(C(C)(C)C(F)(F)F)c1 [Alpelisib] (partner 2 µM)
The method in brief: (§1)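 After 5 days of treatment, lung cancer cells in 1536-well plates were fixed and stained in a single step (final 0.05% Triton X-100, 1% formaldehyde, 1 ug/ml Hoechst) and their nuclei counted on 4× images. Treatment had been applied by pin tool the day after seeding as one drug alone or as a fixed anchor-drug dose with five library-drug doses (not always all listed) in √10 steps. Relative viability is the nuclei count of treated wells divided by that of vehicle wells, and values are medians of duplicate plates.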

Compound in the assay “VX-702 + Pictilisib”: NC(=O)c1ccc(N(C(N)=O)c2c(F)cccc2F)nc1-c1ccc(F)cc1F [VX-702] + CS(=O)(=O)N1CCN(Cc2cc3nc(-c4cccc5[nH]ncc45)nc(N4CCOCC4)c3s2)CC1 [Pictilisib] (partner 1 µM)
The method in brief:
as §1

Compound in the assay “Dabrafenib + Palbociclib”: CC(C)(C)c1nc(-c2cccc(NS(=O)(=O)c3c(F)cccc3F)c2F)c(-c2ccnc(N)n2)s1 [Dabrafenib] + CC(=O)c1c(C)c2cnc(Nc3ccc(N4CCNCC4)cn3)nc2n(C2CCCC2)c1=O [Palbociclib] (partner 0.5 µM)
The method in brief:
as §1

Compound in the assay “VX-702 + Pemetrexed”: NC(=O)c1ccc(N(C(N)=O)c2c(F)cccc2F)nc1-c1ccc(F)cc1F [VX-702] + Nc1nc2[nH]cc(CCc3ccc(C(=O)N[C@@H](CCC(=O)O)C(=O)O)cc3)c2c(=O)[nH]1 [Pemetrexed] (partner 0.2 µM)
Summed up:
as §1

Turning to Calu-6, the relative viability in the assay with Dabrafenib + Alpelisib (first compound 0.003 µM) came out at 0.964; with Dabrafenib + Alpelisib (first compound 0.009487 µM), 0.896; with Dabrafenib + Alpelisib (first compound 0.03 µM), 0.92; in the assay with Dabrafenib + Alpelisib (first compound 0.09487 µM), 0.723; with Dabrafenib + Alpelisib (first compound 0.3 µM), 0.593; with VX-702 + Pictilisib (first compound 0.02 µM), 0.973. Besides, the values for the relative viability with VX-702 + Pictilisib (first compound 0.2 µM), with VX-702 + Pictilisib (first compound 0.6325 µM) and in the assay with VX-702 + Pictilisib (first compound 2 µM) were 1.05, 0.996 and 1.11, respectively.

Regarding ChaGo-K-1, the relative viability was found to be 0.874 with Dabrafenib + Palbociclib (first compound 0.003 µM); 0.925 in the assay with Dabrafenib + Palbociclib (first compound 0.009487 µM); 0.838 in the assay with Dabrafenib + Palbociclib (first compound 0.03 µM); 0.89 with Dabrafenib + Palbociclib (first compound 0.09487 µM); 0.996 with Dabrafenib + Palbociclib (first compound 0.3 µM); 0.249 with VX-702 + Pemetrexed (first compound 0.02 µM). Besides, the relative viability in the assay with VX-702 + Pemetrexed (first compound 0.2 µM) was 0.257; with VX-702 + Pemetrexed (first compound 0.6325 µM), 0.269; with VX-702 + Pemetrexed (first compound 2 µM), 0.26; in the assay with VX-702 + Pictilisib (first compound 0.02 µM) it was 0.73; in the assay with VX-702 + Pictilisib (first compound 0.2 µM) it was 0.3; with VX-702 + Pictilisib (first compound 0.6325 µM) it was 0.591. In addition, the relative viability in the assay with VX-702 + Pictilisib (first compound 2 µM) stood at 1.12.

With EBC-1, the relative viability came to 0.71 in the assay with Dabrafenib + Alpelisib (first compound 0.003 µM); 0.649 with Dabrafenib + Alpelisib (first compound 0.009487 µM); 0.563 with Dabrafenib + Alpelisib (first compound 0.03 µM); 0.264 with Dabrafenib + Alpelisib (first compound 0.09487 µM); 0.24 with Dabrafenib + Alpelisib (first compound 0.3 µM); 0.381 with VX-702 + Pictilisib (first compound 0.02 µM). The relative viability is 0.331 with VX-702 + Pictilisib (first compound 0.2 µM), 0.307 with VX-702 + Pictilisib (first compound 0.6325 µM) and 0.311 in the assay with VX-702 + Pictilisib (first compound 2 µM).

For EKVX, the relative viability with Dabrafenib + Alpelisib (first compound 0.003 µM) was 0.923; with Dabrafenib + Alpelisib (first compound 0.009487 µM), 1.05; with Dabrafenib + Alpelisib (first compound 0.03 µM) it was 0.889; with Dabrafenib + Alpelisib (first compound 0.09487 µM), 0.682; in the assay with Dabrafenib + Alpelisib (first compound 0.3 µM) it was 1.07; with Dabrafenib + Palbociclib (first compound 0.009487 µM), 0.41. Further, the relative viability with Dabrafenib + Palbociclib (first compound 0.03 µM) was found to be 0.387; with Dabrafenib + Palbociclib (first compound 0.09487 µM), 0.383; with Dabrafenib + Palbociclib (first compound 0.3 µM) it was 0.445; with VX-702 + Pemetrexed (first compound 0.02 µM), 0.463; with VX-702 + Pemetrexed (first compound 0.2 µM), 0.345; with VX-702 + Pemetrexed (first compound 0.6325 µM), 0.38. Besides, the relative viability was 0.431 in the assay with VX-702 + Pemetrexed (first compound 2 µM); 0.408 with VX-702 + Pictilisib (first compound 0.02 µM); 0.351 with VX-702 + Pictilisib (first compound 0.2 µM); 0.35 in the assay with VX-702 + Pictilisib (first compound 0.6325 µM); 0.358 in the assay with VX-702 + Pictilisib (first compound 2 µM).

As for EMC-BAC-2, the relative viability was 0.744 in the assay with Dabrafenib + Alpelisib (first compound 0.003 µM); 0.746 with Dabrafenib + Alpelisib (first compound 0.009487 µM); 0.574 in the assay with Dabrafenib + Alpelisib (first compound 0.03 µM); 0.666 in the assay with Dabrafenib + Alpelisib (first compound 0.09487 µM); 0.784 with Dabrafenib + Alpelisib (first compound 0.3 µM); 0.497 in the assay with Dabrafenib + Palbociclib (first compound 0.009487 µM). Besides, the relative viability is 0.448 with Dabrafenib + Palbociclib (first compound 0.03 µM); 0.427 in the assay with Dabrafenib + Palbociclib (first compound 0.09487 µM); 0.418 with Dabrafenib + Palbociclib (first compound 0.3 µM); 0.472 with VX-702 + Pemetrexed (first compound 0.02 µM); 0.436 in the assay with VX-702 + Pemetrexed (first compound 0.2 µM); 0.407 in the assay with VX-702 + Pemetrexed (first compound 0.6325 µM). Besides, the relative viability with VX-702 + Pemetrexed (first compound 2 µM) was determined as 0.416; in the assay with VX-702 + Pictilisib (first compound 0.02 µM), 0.547; in the assay with VX-702 + Pictilisib (first compound 0.2 µM), 0.555; in the assay with VX-702 + Pictilisib (first compound 0.6325 µM), 0.508; with VX-702 + Pictilisib (first compound 2 µM), 0.432.

Regarding EPLC-272H, the relative viability in the assay with Dabrafenib + Alpelisib (first compound 0.009487 µM) amounted to 1.1; with Dabrafenib + Alpelisib (first compound 0.03 µM), 0.843; with Dabrafenib + Alpelisib (first compound 0.09487 µM) it was 0.962; in the assay with Dabrafenib + Alpelisib (first compound 0.3 µM), 0.864; with Dabrafenib + Palbociclib (first compound 0.009487 µM) it was 0.318; with Dabrafenib + Palbociclib (first compound 0.03 µM), 0.286. Moreover, the relative viability with Dabrafenib + Palbociclib (first compound 0.09487 µM) stood at 0.366; in the assay with Dabrafenib + Palbociclib (first compound 0.3 µM) it was 0.354; in the assay with VX-702 + Pemetrexed (first compound 0.02 µM), 0.354; in the assay with VX-702 + Pemetrexed (first compound 0.2 µM) it was 0.402; with VX-702 + Pemetrexed (first compound 0.6325 µM), 0.318; with VX-702 + Pemetrexed (first compound 2 µM) it was 0.403. For the same cell line, the relative viability amounted to 0.321 with VX-702 + Pictilisib (first compound 0.02 µM), 0.303 with VX-702 + Pictilisib (first compound 0.2 µM), 0.33 with VX-702 + Pictilisib (first compound 0.6325 µM) and 0.353 in the assay with VX-702 + Pictilisib (first compound 2 µM).

H3255: the relative viability came to 0.647 with Dabrafenib + Alpelisib (first compound 0.003 µM); 0.813 in the assay with Dabrafenib + Alpelisib (first compound 0.009487 µM); 0.684 in the assay with Dabrafenib + Alpelisib (first compound 0.03 µM); 0.669 in the assay with Dabrafenib + Alpelisib (first compound 0.09487 µM); 0.664 with Dabrafenib + Alpelisib (first compound 0.3 µM); 0.288 with Dabrafenib + Palbociclib (first compound 0.003 µM). In addition, the relative viability is 0.313 with Dabrafenib + Palbociclib (first compound 0.009487 µM); 0.343 in the assay with Dabrafenib + Palbociclib (first compound 0.03 µM); 0.313 in the assay with Dabrafenib + Palbociclib (first compound 0.09487 µM); 0.333 in the assay with Dabrafenib + Palbociclib (first compound 0.3 µM); 0.565 in the assay with VX-702 + Pemetrexed (first compound 0.02 µM); 0.612 with VX-702 + Pemetrexed (first compound 0.2 µM). The relative viability with VX-702 + Pemetrexed (first compound 0.6325 µM) was 0.551; in the assay with VX-702 + Pemetrexed (first compound 2 µM), 0.599; with VX-702 + Pictilisib (first compound 0.02 µM), 0.553; in the assay with VX-702 + Pictilisib (first compound 0.2 µM) it was 0.48; with VX-702 + Pictilisib (first compound 0.6325 µM), 0.462; with VX-702 + Pictilisib (first compound 2 µM), 0.479.

For the cell line HARA, the relative viability with Dabrafenib + Alpelisib (first compound 0.003 µM) is 0.669; with Dabrafenib + Alpelisib (first compound 0.009487 µM), 0.89; with Dabrafenib + Alpelisib (first compound 0.03 µM), 0.646; in the assay with Dabrafenib + Alpelisib (first compound 0.09487 µM), 0.732; with Dabrafenib + Alpelisib (first compound 0.3 µM) it was 1.09; with Dabrafenib + Palbociclib (first compound 0.009487 µM), 0.325. Besides, the relative viability in the assay with Dabrafenib + Palbociclib (first compound 0.09487 µM) was determined as 0.304; in the assay with Dabrafenib + Palbociclib (first compound 0.3 µM), 0.338; with VX-702 + Pemetrexed (first compound 0.02 µM), 0.235; in the assay with VX-702 + Pemetrexed (first compound 0.6325 µM), 0.277; with VX-702 + Pemetrexed (first compound 2 µM), 0.256; in the assay with VX-702 + Pictilisib (first compound 0.02 µM), 0.361. Moreover, the relative viability with VX-702 + Pictilisib (first compound 0.2 µM) was 0.412; with VX-702 + Pictilisib (first compound 0.6325 µM) it was 0.325; with VX-702 + Pictilisib (first compound 2 µM), 0.332.

For HCC-15, the relative viability with Dabrafenib + Alpelisib (first compound 0.003 µM) amounted to 0.831; with Dabrafenib + Alpelisib (first compound 0.009487 µM) it was 0.971; in the assay with Dabrafenib + Alpelisib (first compound 0.03 µM) it was 0.909; in the assay with Dabrafenib + Alpelisib (first compound 0.09487 µM) it was 0.912; with Dabrafenib + Alpelisib (first compound 0.3 µM), 0.893; with Dabrafenib + Palbociclib (first compound 0.003 µM) it was 0.714. Besides, the relative viability came to 0.779 with Dabrafenib + Palbociclib (first compound 0.009487 µM); 0.769 with Dabrafenib + Palbociclib (first compound 0.03 µM); 0.729 in the assay with Dabrafenib + Palbociclib (first compound 0.09487 µM); 0.78 in the assay with Dabrafenib + Palbociclib (first compound 0.3 µM); 0.223 in the assay with VX-702 + Pemetrexed (first compound 0.02 µM); 0.22 with VX-702 + Pemetrexed (first compound 0.2 µM). The relative viability in the assay with VX-702 + Pemetrexed (first compound 0.6325 µM) turned out to be 0.227; in the assay with VX-702 + Pemetrexed (first compound 2 µM), 0.248; in the assay with VX-702 + Pictilisib (first compound 0.02 µM), 0.731; with VX-702 + Pictilisib (first compound 0.2 µM), 0.644; in the assay with VX-702 + Pictilisib (first compound 0.6325 µM), 0.643; with VX-702 + Pictilisib (first compound 2 µM), 0.749.

Source of the values: the supplement of paper PMC10307832.
